The source of these data is patent US9511134B2, “Inducing immune responses to influenza virus using polypeptide and nucleic acid compositions” (priority 2006, dated 2016).

Usually IC50 stands for the concentration that gives 50% inhibition.

Where no end group is shown, it is not given here.

What all share (assay): biochemical
Holding throughout (type): binding

The target in one experiment is T1, DRB1*0301 (Homo sapiens, UniProt P01903+P01911, A100K/A102G/A103R/A169T/F55Y/I96L/K41T/L162R/M171V/P40S/Q125H/Q178H/Q39Y/R42S/S66N/T106N/T262R/W38E/Y61H).
T1 construct: made in house; host or cells: EBV-transformed homozygous human B cell lines, transfected fibroblasts or single-allele 721.221 transfectants
T1 sequence (P01903 26-254, other chains not shown): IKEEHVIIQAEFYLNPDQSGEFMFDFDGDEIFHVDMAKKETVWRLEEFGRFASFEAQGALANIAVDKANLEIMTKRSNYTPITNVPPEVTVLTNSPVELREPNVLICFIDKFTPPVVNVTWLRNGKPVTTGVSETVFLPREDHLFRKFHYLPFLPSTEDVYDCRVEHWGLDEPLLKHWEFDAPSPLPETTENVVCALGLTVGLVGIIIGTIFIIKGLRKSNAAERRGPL

Another experiment addresses DRB1*1302 (Homo sapiens, UniProt P01903+P01911, A100E/A169T/K41T/L162R/M171V/P40S/Q125H/Q178H/Q39Y/Q99D/R42S/S66N/T262R/V115G/W38E/Y61H). Particulars: read-out: IC50 nM to purified HLA DRB1*1302.
A further experiment concerns the target T2, DRB1*0101 (Homo sapiens, UniProt P01903+P01911, A100R/D57E/F55L/F60I/F76Y/I96L/L162R/M171V/P40L/Q125E/R42F/V115G/Y59C).
T2 construct: made in house; host or cells: EBV-transformed homozygous human B cell lines, transfected fibroblasts or single-allele 721.221 transfectants
Particulars: IC50 nM to purified HLA DRB1*0101.

Chain of DRB1*1302 (P01903 26-254 limits assumed, other chains not shown): as the sequence (P01903 26-254, other chains not shown) above

For `CC[C@H](C)[C@H](NC(=O)[C@H](CC(C)C)NC(=O)[C@H](CC(=O)O)NC(=O)[C@H](CC(=O)O)NC(=O)[C@H](CCCCN)NC(=O)[C@H](CC(C)C)NC(=O)CNC(=O)[C@H](C)NC(=O)[C@@H](N)CO)C(=O)N[C@@H](CCC(=O)O)C(=O)N[C@@H](CC(N)=O)C(=O)N[C@@H](CC(C)C)C(=O)N[C@@H](CCC(N)=O)C(=O)N[C@@H](C)C(=O)N[C@@H](Cc1ccc(O)cc1)C(=O)O` [Flu.M1.229], the IC50 against DRB1*0301 worked out at 64 nM.

Turning to `CC(C)C[C@H](NC(=O)[C@H](CCC(=O)O)NC(=O)[C@@H](NC(=O)[C@H](CO)NC(=O)[C@H](CCCCN)NC(=O)[C@@H](N)C(C)C)C(C)C)C(=O)N[C@@H](CC(=O)O)C(=O)N[C@@H](C)C(=O)N1CCC[C@H]1C(=O)N[C@@H](CC(N)=O)C(=O)N[C@@H](Cc1ccc(O)cc1)C(=O)N[C@@H](Cc1c[nH]cn1)C(=O)N[C@@H](Cc1ccc(O)cc1)C(=O)N[C@@H](CCC(=O)O)C(=O)N[C@@H](CCC(=O)O)C(=O)O` [Flu.NA.244], the results for the half-maximal inhibitory concentration (IC50) at DRB1*1302 and against DRB1*0301 were 197 nM and 65 nM, respectively. The molecule `CSCC[C@H](NC(=O)[C@H](CC(C)C)NC(=O)[C@@H](NC(=O)[C@H](CC(C)C)NC(=O)[C@@H](N)CC(C)C)C(C)C)C(=O)N[C@@H](CCC(=O)O)C(=O)N[C@@H](CC(N)=O)C(=O)N[C@@H](CCC(=O)O)C(=O)N[C@@H](CCCNC(=N)N)C(=O)N[C@H](C(=O)N[C@@H](CC(C)C)C(=O)N[C@@H](CC(=O)O)C(=O)N[C@@H](Cc1ccccc1)C(=O)N[C@@H](Cc1c[nH]cn1)C(=O)N[C@@H](CC(=O)O)C(=O)O)[C@@H](C)O` [Flu.HA.444] registered a half-maximal inhibitory concentration (IC50) against DRB1*0301 of 64 nM.

Turning to `CC[C@H](C)[C@H](NC(=O)[C@@H](N)CC(C)C)C(=O)N[C@@H](CC(=O)O)C(=O)N[C@@H](Cc1ccccc1)C(=O)N[C@@H](CC(C)C)C(=O)N[C@@H](CCCCN)C(=O)N[C@@H](CC(=O)O)C(=O)N[C@H](C(=O)N[C@@H](CCSC)C(=O)N[C@@H](CCC(=O)O)C(=O)N[C@@H](CO)C(=O)N[C@@H](CCSC)C(=O)N[C@@H](CC(=O)O)C(=O)N[C@@H](CCCCN)C(=O)N[C@@H](CCC(=O)O)C(=O)O)C(C)C` [Flu.PB1.166], the IC50 at DRB1*0301 stood at 120 nM.

In turn, CEQIADSQHRSHRQM [Flu.M1.154] yielded an IC50 against DRB1*0301 of 804 nM.

At DRB1*0301, `CC[C@H](C)[C@H](NC(=O)[C@H](CC(C)C)NC(=O)[C@H](CCSC)NC(=O)[C@H](CC(C)C)NC(=O)[C@H](Cc1c[nH]c2ccccc12)NC(=O)[C@H](CC(=O)O)NC(=O)[C@H](CCCNC(=N)N)NC(=O)[C@H](CO)NC(=O)[C@H](CCSC)NC(=O)[C@H](CCC(=O)O)NC(=O)[C@H](CCC(=O)O)NC(=O)[C@@H](N)CC(C)C)C(=O)N1CCC[C@H]1C(=O)N[C@@H](CCCCN)C(=O)N[C@@H](CCC(N)=O)C(=O)O` [Flu.NS1.98] came in with an IC50 of 170 nM. For `CC(C)C[C@H](NC(=O)[C@H](CO)NC(=O)[C@H](CCCCN)NC(=O)[C@H](CCC(N)=O)NC(=O)[C@H](CC(=O)O)NC(=O)[C@H](CCCNC(=N)N)NC(=O)[C@H](CCCNC(=N)N)NC(=O)[C@H](CC(C)C)NC(=O)[C@H](CCCNC(=N)N)NC(=O)[C@H](CC(=O)O)NC(=O)[C@@H](N)CC(C)C)C(=O)N[C@@H](CCCNC(=N)N)C(=O)NCC(=O)N[C@@H](CCCNC(=N)N)C(=O)NCC(=O)O` [Flu.NS1.36], the 50% inhibitory concentration (IC50) stood at 800 nM against DRB1*0101 and 83 nM on DRB1*0301. In the case of `CC[C@H](C)[C@H](NC(=O)[C@H](CCCNC(=N)N)NC(=O)[C@H](CCCCN)NC(=O)[C@@H](NC(=O)[C@H](C)NC(=O)[C@@H](NC(=O)[C@H](CCC(N)=O)NC(=O)[C@H](CO)NC(=O)[C@H](CC(=O)O)NC(=O)[C@@H](NC(=O)[C@H](CC(C)C)NC(=O)[C@@H](NC(=O)[C@H](CO)NC(=O)[C@H](CO)NC(=O)[C@@H](N)CC(=O)O)[C@@H](C)CC)[C@@H](C)O)[C@@H](C)O)[C@@H](C)O)C(=O)O` [Flu.PB2.743], 36 nM corresponded to half-maximal inhibition at DRB1*0301 (IC50).
